The results in this text go back to ChEMBL document CHEMBL4715878 (J Med Chem, 2020).

A value given as a limit tells only on which side of the number the result lay.

Data set [1] is described as follows: in vitro. The conditions noted are these: CD-1, mouse, liver microsomes. A general note: Liver microsomes are vesicles of endoplasmic reticulum, rich in cytochrome P450 enzymes.
Data set [2] can be described thus: in vitro. The note with it: CD-1, mouse, microsomes.
Data set [3] has as its system MDA-MB-468. Kind of data set: Antiproliferative activity against human MDA-MB-468 cells assessed as cell growth inhibition after 48 hrs by SRB assay. In kind it is functional. In general terms: In SRB staining, fixed cells bind dye roughly in proportion to their protein.
The subject of a further data set is MDA-MB-231. Kind of data set: Antiproliferative activity against human MDA-MB-231 cells assessed as reduction in cell viability incubated for 72 hrs by WST8 assay. In kind it is functional, cell-based. The conditions noted are these: MDA-MB-231, 72 h.
Data set [4] deals with MCF7. Kind of data set: Antiproliferative activity against human MCF7 cells assessed as reduction in cell viability incubated for 72 hrs by WST8 assay. Type of data set: functional, cell-based. The conditions noted are these: MCF7, 72 h. Background: Tetrazolium assays rely on reduction of a dye to a coloured formazan, in cell work by metabolically active cells.
A further data set concerns BT-474. The data set is described as follows: Antiproliferative activity against human BT474 cells assessed as reduction in cell viability incubated for 72 hrs by WST8 assay. Type of data set: functional, cell-based. The conditions noted are these: BT-474, 72 h.
The next data set concerns AU565. Kind of data set: Antiproliferative activity against human AU565 cells assessed as reduction in cell viability incubated for 72 hrs by WST8 assay. In kind it is functional, cell-based. The note with it: AU565, 72 h.
In data set [5] the target is Platelet-derived growth factor receptor alpha (Homo sapiens, UniProt P16234). The data set is described as follows: Effect on human recombinant N-terminal GST-tagged PDGFRalpha (550 to end residues) expressed in baculovirus infected Sf9 insect cells in presence of substrate and [gamma-32ATP] at 10 uM incubated for 30 mins by scintillation counting based radiometry assay relative to control. The note with it: 0.5 h, read-out: Activity.

Data set [6] addresses Receptor tyrosine-protein kinase erbB-4 (Homo sapiens, UniProt Q15303). The data set is described as follows: Effect on human recombinant N-terminal GST-tagged HER4 (682 to 993) expressed in baculovirus infected Sf9 insect cells in presence of substrate and [gamma-32ATP] at 10 uM incubated for 30 mins by scintillation counting based radiometry assay relative to control. The conditions noted are these: 0.5 h, read-out: Activity.

Data set [7] concerns the target T1, Receptor tyrosine-protein kinase erbB-2 (Homo sapiens, UniProt P04626). Kind of data set: Inhibition of wild-type HER2 (unknown origin) at 0.5 nM in presence of substrate incubated for 30 mins by ADP-Glo assay relative to control.
In data set [8] the target is T1, Receptor tyrosine-protein kinase erbB-2. The data set is described as follows: Inhibition of HER2 (unknown origin) in presence of substrate incubated for 30 mins by ADP-Glo assay.
The target is the same in data set [9]. The note with it: Sf9, human, 0.5 h.
The target in data set [10] is Epidermal growth factor receptor (Homo sapiens, UniProt P00533). The conditions noted are these: 0.5 h.
Description: Effect on human EGFR in presence of substrate and [gamma-32ATP] at 10 uM incubated for 30 mins by scintillation counting based radiometry assay relative to control
Data set [11] is described as follows: Antiproliferative activity against human BC assessed as lethality at 10 uM after 48 hrs by SRB assay relative to control. Type of data set: functional.
Data set [12] is described as follows: Antiproliferative activity against human BC assessed as cell growth inhibition at 10 uM after 48 hrs by SRB assay relative to control. Type of data set: functional. The note with it: read-out: GI.
A short description of data set [13]: Antiproliferative activity against human MDA-MB-231 cells assessed as lethality at 10 uM after 48 hrs by SRB assay relative to control. Type of data set: functional, MDA-MB-23.
For data set [14], the system named is MCF7. The data set is described as follows: Antiproliferative activity against human MCF7 cells assessed as lethality at 10 uM after 48 hrs by SRB assay relative to control. In kind it is functional.
The test system of data set [15] is MDA-MB-468. The data set is described as follows: Antiproliferative activity against human MDA-MB-468 cells assessed as lethality at 10 uM after 48 hrs by SRB assay relative to control. Type of data set: functional.
Data set [16] deals with MDA-MB-468. Kind of data set: Antiproliferative activity against human MDA-MB-468 cells assessed as cell growth inhibition at 10 uM after 48 hrs by SRB assay relative to control. Type of data set: functional. The note with it: read-out: GI.
Data set [17] deals with Panel NCI-60 (60 carcinoma cell lines). The data set is described as follows: Antiproliferative activity against human NCI60 cells assessed as lethality at 10 uM after 48 hrs by SRB assay relative to control. Type of data set: functional.
For data set [18] the test system is unchanged. The data set is described as follows: Antiproliferative activity against human NCI60 cells assessed as mean cell growth at 10 uM after 48 hrs by SRB assay relative to control. Type of data set: functional.
Data set [19] has as its system MCF7. Kind of data set: Potency index, ratio of lapatinib IC50 to test compound IC50 for antiproliferative activity against human MCF7 cells. In kind it is functional.
Data set [20] is described as follows: in vitro. The conditions noted are these: CD-1, mouse, liver microsomes. This is another data set of the same source.
Description: Metabolic stability in CD-1 mouse liver microsomes assessed as parent compound remaining at 100 uM measured after 60 mins by LC-MS/MS analysis
A short description of data set [21]: in vitro. The conditions noted are these: CD-1, mouse, liver microsomes. This is another data set of the same source.
Description: Metabolic stability in CD-1 mouse liver microsomes assessed as parent compound remaining at 100 uM measured after 60 mins in presence of NADPH by LC-MS/MS analysis
A short description of data set [22]: in vitro. The note with it: CD-1, mouse, liver microsomes. The source holds these as a separate data set.

Chain of Epidermal growth factor receptor (P00533 whole entry): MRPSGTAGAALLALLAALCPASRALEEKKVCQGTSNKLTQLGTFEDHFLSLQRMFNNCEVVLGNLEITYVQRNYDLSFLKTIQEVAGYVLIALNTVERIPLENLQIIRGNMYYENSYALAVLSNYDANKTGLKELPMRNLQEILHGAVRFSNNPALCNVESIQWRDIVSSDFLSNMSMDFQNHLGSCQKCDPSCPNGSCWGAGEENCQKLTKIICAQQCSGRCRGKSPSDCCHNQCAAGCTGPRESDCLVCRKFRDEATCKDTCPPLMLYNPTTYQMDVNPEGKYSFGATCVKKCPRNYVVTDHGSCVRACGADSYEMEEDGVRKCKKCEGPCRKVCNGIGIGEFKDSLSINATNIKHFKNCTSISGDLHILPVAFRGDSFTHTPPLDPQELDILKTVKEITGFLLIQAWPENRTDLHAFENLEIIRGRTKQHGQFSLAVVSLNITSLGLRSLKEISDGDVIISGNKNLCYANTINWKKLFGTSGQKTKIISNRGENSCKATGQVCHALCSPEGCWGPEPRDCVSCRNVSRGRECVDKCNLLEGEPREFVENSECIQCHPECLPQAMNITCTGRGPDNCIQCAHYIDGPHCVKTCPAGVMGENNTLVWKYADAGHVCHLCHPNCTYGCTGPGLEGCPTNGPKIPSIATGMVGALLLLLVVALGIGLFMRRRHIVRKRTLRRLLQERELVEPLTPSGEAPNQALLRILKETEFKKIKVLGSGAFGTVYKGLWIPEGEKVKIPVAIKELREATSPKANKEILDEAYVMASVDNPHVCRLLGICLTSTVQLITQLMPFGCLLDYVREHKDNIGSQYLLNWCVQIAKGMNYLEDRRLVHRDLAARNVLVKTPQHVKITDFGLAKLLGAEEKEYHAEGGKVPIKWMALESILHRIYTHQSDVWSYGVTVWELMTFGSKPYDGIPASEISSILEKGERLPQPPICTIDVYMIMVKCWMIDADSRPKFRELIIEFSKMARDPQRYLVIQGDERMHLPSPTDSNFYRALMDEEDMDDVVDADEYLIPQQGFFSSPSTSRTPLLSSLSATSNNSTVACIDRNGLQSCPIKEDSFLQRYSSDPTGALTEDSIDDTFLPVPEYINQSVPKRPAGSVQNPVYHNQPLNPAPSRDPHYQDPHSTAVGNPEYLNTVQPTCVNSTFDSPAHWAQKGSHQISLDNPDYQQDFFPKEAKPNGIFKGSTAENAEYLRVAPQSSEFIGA
T1 sequence (P04626 whole entry): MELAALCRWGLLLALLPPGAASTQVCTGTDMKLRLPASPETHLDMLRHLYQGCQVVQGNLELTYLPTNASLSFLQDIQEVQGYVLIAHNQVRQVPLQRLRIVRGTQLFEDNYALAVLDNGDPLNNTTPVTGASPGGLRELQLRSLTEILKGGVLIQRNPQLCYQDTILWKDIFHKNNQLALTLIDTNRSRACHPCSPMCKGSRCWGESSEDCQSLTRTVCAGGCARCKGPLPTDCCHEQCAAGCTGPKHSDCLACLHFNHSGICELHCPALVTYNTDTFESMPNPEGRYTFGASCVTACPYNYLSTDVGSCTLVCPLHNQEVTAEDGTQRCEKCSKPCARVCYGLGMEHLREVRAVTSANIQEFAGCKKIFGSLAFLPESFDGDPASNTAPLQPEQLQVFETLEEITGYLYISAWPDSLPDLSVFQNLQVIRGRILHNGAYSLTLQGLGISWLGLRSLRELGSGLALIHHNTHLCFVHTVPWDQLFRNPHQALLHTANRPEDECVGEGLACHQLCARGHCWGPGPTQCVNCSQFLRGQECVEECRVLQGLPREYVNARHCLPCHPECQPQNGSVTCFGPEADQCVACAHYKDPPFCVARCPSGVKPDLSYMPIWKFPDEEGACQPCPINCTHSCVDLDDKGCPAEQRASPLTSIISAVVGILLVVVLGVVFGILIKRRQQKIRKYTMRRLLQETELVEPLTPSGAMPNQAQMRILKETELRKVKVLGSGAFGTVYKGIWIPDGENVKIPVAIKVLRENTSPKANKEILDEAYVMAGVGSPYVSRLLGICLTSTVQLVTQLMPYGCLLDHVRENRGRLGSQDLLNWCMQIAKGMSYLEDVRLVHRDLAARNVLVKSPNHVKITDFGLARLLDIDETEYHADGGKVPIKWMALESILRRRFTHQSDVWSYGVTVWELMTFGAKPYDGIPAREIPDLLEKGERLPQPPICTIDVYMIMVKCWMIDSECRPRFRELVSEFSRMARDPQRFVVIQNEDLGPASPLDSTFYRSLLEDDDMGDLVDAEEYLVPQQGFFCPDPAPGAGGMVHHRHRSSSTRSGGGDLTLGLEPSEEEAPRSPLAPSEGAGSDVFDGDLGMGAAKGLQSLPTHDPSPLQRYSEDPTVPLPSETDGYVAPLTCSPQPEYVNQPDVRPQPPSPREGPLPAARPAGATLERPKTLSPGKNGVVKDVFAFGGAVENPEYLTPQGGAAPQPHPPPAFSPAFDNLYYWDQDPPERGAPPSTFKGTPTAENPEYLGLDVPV
Chain of Platelet-derived growth factor receptor alpha (P16234 whole entry): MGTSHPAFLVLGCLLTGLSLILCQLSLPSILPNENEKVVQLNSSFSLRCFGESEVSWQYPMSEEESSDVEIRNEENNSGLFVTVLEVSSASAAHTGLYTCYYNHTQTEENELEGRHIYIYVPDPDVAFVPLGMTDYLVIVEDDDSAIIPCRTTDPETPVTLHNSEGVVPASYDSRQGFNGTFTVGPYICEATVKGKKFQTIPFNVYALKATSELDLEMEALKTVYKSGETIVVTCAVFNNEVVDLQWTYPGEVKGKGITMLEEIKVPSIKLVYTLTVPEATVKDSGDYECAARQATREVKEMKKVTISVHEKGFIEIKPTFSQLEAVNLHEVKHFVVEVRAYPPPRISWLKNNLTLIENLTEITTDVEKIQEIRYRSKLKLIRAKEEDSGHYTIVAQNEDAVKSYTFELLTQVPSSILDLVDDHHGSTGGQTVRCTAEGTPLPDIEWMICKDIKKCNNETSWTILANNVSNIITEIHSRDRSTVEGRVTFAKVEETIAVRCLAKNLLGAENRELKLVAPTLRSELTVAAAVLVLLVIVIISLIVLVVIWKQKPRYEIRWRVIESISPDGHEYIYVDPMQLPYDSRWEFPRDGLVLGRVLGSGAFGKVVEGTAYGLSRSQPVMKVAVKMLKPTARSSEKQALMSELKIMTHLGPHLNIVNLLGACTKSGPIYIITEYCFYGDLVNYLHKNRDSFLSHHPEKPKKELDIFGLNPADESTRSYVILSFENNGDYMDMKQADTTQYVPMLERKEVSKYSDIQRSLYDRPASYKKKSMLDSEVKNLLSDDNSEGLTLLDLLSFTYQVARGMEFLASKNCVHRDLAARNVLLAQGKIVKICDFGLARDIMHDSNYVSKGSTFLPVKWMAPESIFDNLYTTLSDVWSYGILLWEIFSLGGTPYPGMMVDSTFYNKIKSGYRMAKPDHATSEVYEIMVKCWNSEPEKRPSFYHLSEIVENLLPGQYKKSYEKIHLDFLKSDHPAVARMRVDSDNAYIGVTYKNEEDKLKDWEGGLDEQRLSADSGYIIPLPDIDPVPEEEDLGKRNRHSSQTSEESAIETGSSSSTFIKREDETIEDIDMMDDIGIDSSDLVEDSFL
Chain of Receptor tyrosine-protein kinase erbB-4 (Q15303 whole entry): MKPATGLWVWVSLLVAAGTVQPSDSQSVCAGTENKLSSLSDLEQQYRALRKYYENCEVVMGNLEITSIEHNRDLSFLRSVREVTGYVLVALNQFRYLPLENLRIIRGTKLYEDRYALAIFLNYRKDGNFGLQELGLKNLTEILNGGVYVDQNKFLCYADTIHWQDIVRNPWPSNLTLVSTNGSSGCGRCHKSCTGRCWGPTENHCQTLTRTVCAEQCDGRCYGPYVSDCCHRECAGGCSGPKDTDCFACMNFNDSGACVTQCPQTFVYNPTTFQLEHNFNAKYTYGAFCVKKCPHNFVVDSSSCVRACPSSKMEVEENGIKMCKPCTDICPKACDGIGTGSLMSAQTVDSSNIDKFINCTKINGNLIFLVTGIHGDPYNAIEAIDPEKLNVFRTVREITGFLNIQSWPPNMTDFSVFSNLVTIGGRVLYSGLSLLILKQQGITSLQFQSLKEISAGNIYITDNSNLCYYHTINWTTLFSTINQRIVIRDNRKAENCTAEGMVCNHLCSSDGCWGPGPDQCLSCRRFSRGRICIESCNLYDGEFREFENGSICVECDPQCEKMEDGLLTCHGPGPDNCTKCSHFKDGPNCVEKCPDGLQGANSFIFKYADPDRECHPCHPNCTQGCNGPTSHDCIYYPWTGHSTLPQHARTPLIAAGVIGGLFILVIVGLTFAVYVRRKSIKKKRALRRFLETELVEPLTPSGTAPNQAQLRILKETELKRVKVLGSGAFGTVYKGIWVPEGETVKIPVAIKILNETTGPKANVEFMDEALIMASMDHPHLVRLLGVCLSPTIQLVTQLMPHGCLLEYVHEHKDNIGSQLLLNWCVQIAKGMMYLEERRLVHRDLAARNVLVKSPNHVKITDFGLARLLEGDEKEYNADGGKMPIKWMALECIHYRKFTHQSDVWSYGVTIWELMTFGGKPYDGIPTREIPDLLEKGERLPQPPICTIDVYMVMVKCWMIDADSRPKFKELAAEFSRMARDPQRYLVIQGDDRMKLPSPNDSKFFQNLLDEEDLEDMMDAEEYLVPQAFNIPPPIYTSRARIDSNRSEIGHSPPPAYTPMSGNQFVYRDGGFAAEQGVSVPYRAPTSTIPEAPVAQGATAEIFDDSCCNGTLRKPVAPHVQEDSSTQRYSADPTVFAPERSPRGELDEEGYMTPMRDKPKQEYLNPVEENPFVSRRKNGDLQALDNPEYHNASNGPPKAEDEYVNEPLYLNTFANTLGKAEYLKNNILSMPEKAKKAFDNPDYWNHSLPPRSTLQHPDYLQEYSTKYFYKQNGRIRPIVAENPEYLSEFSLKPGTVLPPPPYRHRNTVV

One may read the CLint scaled as a measure of how fast metabolising enzymes remove a compound, apart from limits set by blood flow. A higher CLint scaled goes with rapid turnover. For orientation: microsomal CLint means a measure of how fast metabolising enzymes remove a compound, apart from limits set by blood flow. `C[C@]12CC[C@H]3[C@@H](CCC4=CC(=O)CC[C@@]43C)[C@@H]1CC[C@@H]2O` [TESTOSTERONE]: in “in vitro [1]”, the CLint scaled at 1 h, 100 µM was 1110 mL/min/kg. The microsomal CLint at 1 h, 100 µM in the data set “in vitro [2]” was found to be 279 µL/min/mg.

Usually GI50 stands for the concentration at which growth is held to half of that of the control. One may read the IC50 as the concentration needed to halve the response being measured. With `FC(F)(F)c1cccc(Oc2ccc(Nc3ncnc4ccc(OCCCN5CCOCC5)cc34)cc2Cl)c1`, the GI50 in the data set on MDA-MB-468 [3] worked out at 500 nM. Further, the half-inhibitory concentration (IC50) in the data set with MDA-MB-231 was found to be 6730 nM; in the data set on MCF7 [4], 5530 nM; in the data set with BT-474, 246 nM; in the data set on AU565, 348 nM.

As usually defined, the inhibition is the share of the control response that was lost under treatment. Take `O=C(CNCCO)Nc1ccc2ncnc(Nc3ccc(OCc4cccc(F)c4)c(Cl)c3)c2c1`: the IC50 with MDA-MB-231 came out at 8780 nM; with MCF7 [4] it was 8620 nM; in the data set with BT-474 it was 240 nM; in the data set on AU565, 220 nM; in [8], 10.4 nM. For the same molecule, the activity at 10 µM in [5] was 54%; in data set [6] it was -98%; in data set [9], -93%; in [10], -78%. Also, the inhibition in data set [7] came out at 3%.

As to `CCN(CC)CCCOc1ccc2ncnc(Nc3ccc(Oc4cccc(C(F)(F)F)c4)c(Cl)c3)c2c1`, the Activity entry in data set [11] is “<=78.7%”; in [13], 11.7%; with MCF7 [14], 11.7%; in the data set with MDA-MB-468 [15], 11.7%; in data set [17], 1.3%; in data set [18] it was 11.85%. Further, the inhibition of growth at 10 µM in data set [12] is ≤ 78.7%; in the data set on MDA-MB-468 [16] it was 18.8%. Moreover, the GI50 in the data set with MDA-MB-468 [3] is 900 nM. Moreover, the IC50 is 1370 nM with MDA-MB-231, 1600 nM with MCF7 [4], 213 nM in the data set with BT-474 and 289 nM in the data set with AU565. For the same molecule, in the data set on MCF7 [19], the “Ratio IC50” value is on record as “<=20”.

As for `OCCNCCCOc1ccc2ncnc(Nc3ccc(Oc4cccc(C(F)(F)F)c4)c(Cl)c3)c2c1`, the Activity entry in [11] is listed as “<=78.7%”; in [13] it was 18%; in the data set with MCF7 [14], 18%; in the data set on MDA-MB-468 [15], 18%; in [17], 1.3%; in data set [18], 11.85%. Moreover, the inhibition of growth at 10 µM in [12] is ≤ 78.7%; in the data set with MDA-MB-468 [16], 18.8%. Moreover, the GI50 with MDA-MB-468 [3] was determined as 600 nM. For the same molecule, the IC50 in the data set on MDA-MB-231 is 1950 nM; in the data set with MCF7 [4], 1510 nM; in the data set on BT-474, 262 nM; with AU565, 456 nM. Also, the “Ratio IC50” value with MCF7 [19] is given as “<=20”.

Regarding `CN1CCN(CCCOc2ccc3ncnc(Nc4ccc(Oc5cccc(C(F)(F)F)c5)c(Cl)c4)c3c2)CC1`, the Activity entry is on record as “<=78.7%” in data set [11]; 18% in [13]; 18% with MCF7 [14]; 18% with MDA-MB-468 [15]; 1.3% in data set [17]; 11.85% in data set [18]. Also, the values for the inhibition of growth at 10 µM (in [12]; in the data set with MDA-MB-468 [16]) were ≤ 78.7% and 18.8%, respectively. The IC50 in the data set with MDA-MB-231 was determined as 1060 nM; in the data set with MCF7 [4] it was 1680 nM; in the data set with BT-474 it was 200 nM; with AU565 it was 447 nM. In addition, the activity at 10 µM in data set [5] is 115%; in data set [6], -99%; in data set [9], -92%; in data set [10], -78%. For the same molecule, the “Ratio IC50” value in the data set with MCF7 [19] is “<=20”.

For the molecule `Cc1cccc(Oc2ccc(Nc3ncnc4ccc(NC(=O)CN(C)C)cc34)cc2Cl)c1`, the GI50 with MDA-MB-468 [3] is 200 nM. The IC50 in the data set on MDA-MB-231 stood at 4510 nM; in the data set on MCF7 [4], 2700 nM; with BT-474, 134 nM; in the data set on AU565 it was 154 nM.

What is called half-life is the time needed for the level to fall by half in the phase considered. High values mean slow loss, low ones fast loss. For the molecule `O=C(O)Cc1ccccc1Nc1c(Cl)cccc1Cl` [DICLOFENAC], the amount remaining at 1 h, 100 µM in the data set “in vitro [20]” worked out at 102%; in “in vitro [21]” it was 50.2%. In “in vitro [1]”, this molecule came in with a CLint scaled at 1 h, 100 µM of 91.5 mL/min/kg. The intrinsic metabolic clearance (microsomal CLint) at 1 h, 100 µM in “in vitro [2]” is 23.1 µL/min/mg. For the same molecule, the half-life at 1 h, 100 µM in the data set “in vitro [22]” was determined as 1 h.

With `CN1CCN(CCCOc2ccc3ncnc(Nc4ccc(Oc5cccc(F)c5)c(Cl)c4)c3c2)CC1`, the figures for the Activity result in data set [11], in [17] and in data set [18] were “<=78.7%”, 1.3% and 11.85%, respectively. Besides, the inhibition of growth at 10 µM was ≤ 78.7% in [12] and 18.8% with MDA-MB-468 [16]. The IC50 in the data set on MDA-MB-231 is 1700 nM; in the data set on MCF7 [4], 913 nM; in the data set with BT-474, 221 nM; with AU565, 419 nM. In addition, the “Ratio IC50” value in the data set on MCF7 [19] was “<=20”.

Turning to `Cc1cccc(Oc2ccc(Nc3ncnc4ccc(NC(=O)CNCCO)cc34)cc2Cl)c1`, the IC50 in the data set with MDA-MB-231 came out at 7830 nM; in the data set with MCF7 [4], 10800 nM; with BT-474 it was 132 nM; in the data set with AU565, 304 nM. Further, the activity at 10 µM in data set [5] is 86%; in [6] it was -99%; in data set [9] it was -93%; in data set [10], -78%.

On to `O=C(CN1CCOCC1)Nc1ccc2ncnc(Nc3ccc(Oc4cccc(C(F)(F)F)c4)c(Cl)c3)c2c1`, for which the IC50 in the data set with MDA-MB-231 turned out to be 8850 nM; in the data set with MCF7 [4] it was 11200 nM; in the data set with BT-474, 298 nM; in the data set on AU565 it was 364 nM. Further, the activity at 10 µM in [5] is 82%; in [6] it was -94%; in data set [9] it was -91%; in data set [10], -71%.

For the molecule `O=C(CN1CCOCC1)Nc1ccc2ncnc(Nc3ccc(Oc4cccc(F)c4)c(Cl)c3)c2c1`, the IC50 with MDA-MB-231 worked out at 30200 nM; with MCF7 [4], 18100 nM; in the data set on BT-474, 373 nM; in the data set on AU565, 545 nM. In addition, the activity at 10 µM in [5] was 18%; in data set [6], -97%; in data set [9] it was -92%; in data set [10], -67%.

Regarding `O=C(CN1CCOCC1)Nc1ccc2ncnc(Nc3ccc(OCc4cccc(F)c4)c(Cl)c3)c2c1`, the IC50 in the data set with MDA-MB-231 is 11600 nM; in the data set on MCF7 [4] it was 7970 nM; in the data set with BT-474 it was 117 nM; with AU565 it was 130 nM. Moreover, the activity at 10 µM was 55% in data set [5], -97% in data set [6], -92% in data set [9] and -81% in data set [10].
